In the case of `C=CC(=O)N1CCC[C@@H](n2nc(-c3ccc(Oc4ccccc4)cc3)c3c(N)ncnc32)C1`, the solubility (mole fraction) (in 2-butanone, 278.15 K) is reported as 0.00549, the solubility (mole fraction) (in 2-butanone, 283.15 K) is reported as 0.00628 and the solubility (mole fraction) (in 2-butanone, 288.15 K) is reported as 0.00726. For the same compound, the solubility (mole fraction) (in 2-butanone, 293.15 K) was 0.00855, the solubility (mole fraction) (in 2-butanone, 298.15 K) was 0.00988 and the solubility (mole fraction) (in 2-butanone, 303.15 K) was 0.0114. The solubility (mole fraction) (in 2-butanone, 308.15 K) was 0.0132, the solubility (mole fraction) (in 2-butanone, 313.15 K) was 0.0155 and the solubility (mole fraction) (in 2-butanone, 318.15 K) was 0.0181. The solubility (mole fraction) (in 2-butanone, 323.15 K) was 0.0211, the solubility (mole fraction) (in MTBE, 278.15 K) was 0.000225 and the solubility (mole fraction) (in MTBE, 283.15 K) was 0.000244. The solubility (mole fraction) (in MTBE, 288.15 K) was 0.000277, the solubility (mole fraction) (in MTBE, 293.15 K) was 0.000305 and the solubility (mole fraction) (in MTBE, 298.15 K) was 0.000331. The solubility (mole fraction) (in MTBE, 303.15 K) was 0.00037, the solubility (mole fraction) (in MTBE, 308.15 K) was 0.000404 and the solubility (mole fraction) (in MTBE, 313.15 K) was 0.000454. It also gave a solubility (mole fraction) (in MTBE, 318.15 K) of 0.000497, a solubility (mole fraction) (in MTBE, 323.15 K) of 0.00056 and a solubility (mole fraction) (in acetone, 278.15 K) of 0.00362. The solubility (mole fraction) (in acetone, 283.15 K) was 0.00417, the solubility (mole fraction) (in acetone, 288.15 K) was 0.00487 and the solubility (mole fraction) (in acetone, 293.15 K) was 0.00573. For the same compound, the solubility (mole fraction) (in acetone, 298.15 K) was 0.00673, the solubility (mole fraction) (in acetone, 303.15 K) was 0.00794 and the solubility (mole fraction) (in acetone, 308.15 K) was 0.00921. It also gave a solubility (mole fraction) (in acetone, 313.15 K) of 0.0108, a solubility (mole fraction) (in acetone, 318.15 K) of 0.0125 and a solubility (mole fraction) (in acetone, 323.15 K) of 0.0144. For the same compound, the solubility (mole fraction) (in acetonitrile, 278.15 K) was 0.000672, the solubility (mole fraction) (in acetonitrile, 283.15 K) was 0.000819 and the solubility (mole fraction) (in acetonitrile, 288.15 K) was 0.000962. The solubility (mole fraction) (in acetonitrile, 293.15 K) was 0.00122, the solubility (mole fraction) (in acetonitrile, 298.15 K) was 0.00143 and the solubility (mole fraction) (in acetonitrile, 303.15 K) was 0.00174. The solubility (mole fraction) (in acetonitrile, 308.15 K) was 0.0021, the solubility (mole fraction) (in acetonitrile, 313.15 K) was 0.00256 and the solubility (mole fraction) (in acetonitrile, 318.15 K) was 0.00314. The solubility (mole fraction) (in acetonitrile, 323.15 K) was 0.00367, the solubility (mole fraction) (in ethyl acetate, 278.15 K) was 0.00312 and the solubility (mole fraction) (in ethyl acetate, 283.15 K) was 0.00357. The solubility (mole fraction) (in ethyl acetate, 288.15 K) was 0.00403, the solubility (mole fraction) (in ethyl acetate, 293.15 K) was 0.00475 and the solubility (mole fraction) (in ethyl acetate, 298.15 K) was 0.00548. For the same compound, the solubility (mole fraction) (in ethyl acetate, 303.15 K) was 0.00618, the solubility (mole fraction) (in ethyl acetate, 308.15 K) was 0.00722 and the solubility (mole fraction) (in ethyl acetate, 313.15 K) was 0.0083. It also gave a solubility (mole fraction) (in ethyl acetate, 318.15 K) of 0.00952, a solubility (mole fraction) (in ethyl acetate, 323.15 K) of 0.0107 and a solubility (mole fraction) (in isopropanol, 278.15 K) of 0.000409. It also gave a solubility (mole fraction) (in isopropanol, 283.15 K) of 0.000547, a solubility (mole fraction) (in isopropanol, 288.15 K) of 0.000734 and a solubility (mole fraction) (in isopropanol, 293.15 K) of 0.000947. It also gave a solubility (mole fraction) (in isopropanol, 298.15 K) of 0.00123, a solubility (mole fraction) (in isopropanol, 303.15 K) of 0.00165 and a solubility (mole fraction) (in isopropanol, 308.15 K) of 0.00217. It also gave a solubility (mole fraction) (in isopropanol, 313.15 K) of 0.00278, a solubility (mole fraction) (in isopropanol, 318.15 K) of 0.00363 and a solubility (mole fraction) (in isopropanol, 323.15 K) of 0.00455. It also gave a solubility (mole fraction) (in n-butanol, 278.15 K) of 0.00127, a solubility (mole fraction) (in n-butanol, 283.15 K) of 0.00163 and a solubility (mole fraction) (in n-butanol, 288.15 K) of 0.00206. For the same compound, the solubility (mole fraction) (in n-butanol, 293.15 K) was 0.00261, the solubility (mole fraction) (in n-butanol, 298.15 K) was 0.00331 and the solubility (mole fraction) (in n-butanol, 303.15 K) was 0.00423. It also gave a solubility (mole fraction) (in n-butanol, 308.15 K) of 0.0054, a solubility (mole fraction) (in n-butanol, 313.15 K) of 0.00694 and a solubility (mole fraction) (in n-butanol, 318.15 K) of 0.00894. The solubility (mole fraction) (in n-butanol, 323.15 K) was 0.0115.
